# Assay results as given in patent publication US11787850B2, “Peptidic TGF-beta antagonists” (priority 2015, dated 2023).
# Tested on: TGF-β1-induced PAI-1 protein production in A431 cells
# Assay: Western blot for PAI-1 in A431 cells
# Type: cell-based
# Settings: for inhibition of TGF-β1-induced PAI-1 protein production, peptide treated with DMSO / inhibition of TGF-β1-induced PAI-1 protein production, peptide in Tris left untreated: 100 pM TGF-β1, 18 hours; for inhibition of TGF-β1-induced PAI-1 protein production, peptide treated with DMSO: 0.5% DMSO (FIG. 9); for inhibition of TGF-β1-induced PAI-1 protein production, peptide in Tris left untreated: no DMSO (FIG. 9)
# Description: FIG. 7 illustrates that the small molecular weight CD109-based peptide P16 (but not P11 or P16-1) inhibits TGF-β1-induced PAI-protein production. A431 cells were treated without (lane 1) or with 100 pM of TGF-β1 (lanes 2-6) in the absence (lane 2) or presence of 10 nM of P11 (11 aa peptide, lane 3), P16 (16 aa peptide, lane 4), P16-1 (scrambled peptide of 16 aa, lane 5) or Tris buffer (buffer, lane 6) for 24 hrs. Cell lysates were analyzed by Western blot for PAI-1 ([…]) protein levels and normalized to GAPDH protein levels (loading control). In the conditions tested, P16 (but not P11) inhibited TGF-β1-induced PAI-1 expression.
# A431 cells were treated for 18 hours without (−) or with (+) 100 pM TGF-β1 in the presence or absence of Peptide X or P16. The peptides were previously dissolved in Tris buffer and left untreated or treated with DMSO prior to addition to the cells. Cell lysates were analyzed by Western blot for PAI-1 (plasminogen activator inhibitor-1) protein expression (top panel) and GAPDH served as a loading control (bottom panel). PAI-1 was not detected in untreated cells (lane 1).
# A431 cells were grown in 6-well plates to 70-80% confluency and serum-starved overnight. Cells were washed with PBS and treated with or without TGF-β1 in presence or absence of various CD109-based peptides as indicated in the figure legends. Cells were solubilized with 500 μl of lysis buffer (50 mM Tris, pH 7.5, 150 mM NaCl, 50 mM NaF, 50 mM β-glycerophosphate, 1 mM sodium orthovanadate, 1 mM dithiothreitol, 5 mM EDTA, pH 8.0, 1% Nonidet P-40, 10% glycerol, 10 μM phenylmethylsulfonyl fluoride, 200 μg/ml bovine serum albumin, 1 μg/ml leupeptin, […] soybean trypsin inhibitor, 10 μg/ml benzamide, and 2 μg/ml pepstatin) for 30 min at 4° C. with mild agitation. Cell lysates were collected and centrifuged for 10 min at 10,000×g. The supernatants were collected and protein concentrations were determined using the Bio-Rad protein assay kit. Lysates containing equivalent protein concentrations were mixed with 0.2 volume of 5× electrophoresis sample buffer containing 5% β-mercaptoethanol and boiled for 5 min. Samples were resolved on 7.5% SDS-polyacrylamide gels and transferred to nitrocellulose membranes. Membranes were blocked for 3 h in blocking buffer (30 mM Tris, pH 7.5, 150 mM NaCl, and 0.05% (w/v) Tween 20™ (Tris-buffered saline/Tween) containing 5% (w/v) skim milk powder). The blot was incubated overnight at 4° C. with a 1:1000 dilution of anti-PAI-1 antibody (BD Biosciences). Blots were washed with Tris-buffered saline/Tween and incubated for 45 min at room temperature with a 1:5000 dilution of secondary antibody conjugated to horseradish peroxidase (Pierce). Chemiluminescence detection of the immune complexes was performed using the ECL system (Amersham Biosciences) according to the manufacturer's instructions. The membranes were stripped and reprobed with an anti-GAPDH antibody to confirm equal protein loading.
# A431 cells were treated without (lane 1) or with 100 pM of TGF-β1 (lanes 2-6) in the absence (lane 2) or presence of 10 nM of P11 (11 aa peptide, lane 3), P16 (16 aa peptide, lane 4), P16-1 (scrambled peptide of 16 aa, lane 5) or Tris buffer (buffer, lane 6) for 24 hrs. Cell lysates were analyzed by Western blot for PAI-1 ([…]) protein levels and normalized to GAPDH protein levels (loading control).
# A431 squamous cell carcinoma cells were treated for 18 hours without (−) or with (+) 100 pM TGF-β1 in the presence or absence of Peptide X or P16. The peptides were dissolved in Tris buffer and left untreated or treated with 0.5% DMSO prior to addition to the cells. Cell lysates were analyzed by Western blot for PAI-1 ([…]) protein expression (top panel) and GAPDH served as a loading control (bottom panel).
Sequence,"inhibition of TGF-β1-induced PAI-1 protein production, peptide treated with DMSO","inhibition of TGF-β1-induced PAI-1 protein production, peptide in Tris left untreated","inhibition of TGF-β1-induced PAI-1 protein production (10 nM peptide, 100 pM TGF-β1, 24 hrs (FIG. 7))"
ETWIWLDTNMGSRIYQ [Peptide P16],did not enhance,inhibited,inhibited
LGSSPHVRKHFPETWIWLDTNMGSRIYQEFEVTVPDSITS (Peptide X),inhibited,did not,–
